In data set [1] the test system is MDA-MB-468.
For data set [2], the system named is ACHN.
Data set [3] concerns COLO 205.
The subject of data set [4] is SF-539.
The subject of data set [5] is NCI-H322M.
Data set [6] concerns HS 578T.
Data set [7] relates to HOP-62.
Data set [8] concerns KM12.
The subject of data set [9] is MDA-MB-231/ATCC.
Data set [10] concerns M14.
The test system of data set [11] is HT29.
For data set [12], the system named is SK-MEL-28.
For data set [13], the system named is AML 052308 cells. Briefly: cells. The conditions noted are these: read-out: LC50.
Source text: Derivatives were screened for antileukemic activity against AML cells in culture (See FIGS. 1-7).
Data set [14] has as its system panel of 60 human tumor cell lines. As to the kind of experiment: panel of 60 human tumor cell lines, whole panel or sub-panel (single concentration screen, summaries). Format: cell-based. The conditions noted are these: for inhibition at 10 µM: single concentration of 10^−5 M, read-out: growth inhibition in at least eight human cancer cell lines from the panel; for GI50: range over 6a and 6e.

Data set [15] concerns OVCAR-3.
Data set [16] deals with HCT-116.
Data set [17] deals with RPMI-8226.

As for `C=C1C(=O)O[C@H]2[C@H]1CC/C(COC(=O)NCCN1CCCCC1)=C\CC[C@@]1(C)O[C@@H]21` [JVM 2-13], the CC50 is 28.5 µM in data set [1]; 45.6 µM in [2]; 7.75 µM in data set [3]; 48.4 µM in data set [4]; 61.1 µM in [5]; over 100 µM in data set [6]. For the same compound, the CC50 in data set [7] was 68.5 µM; in data set [8], 61.6 µM; in data set [9], 56.5 µM; in data set [10] it was 55.1 µM; in data set [11], 50.4 µM; in [12], 47.2 µM.
For the compound `C=C1C(=O)O[C@H]2[C@H]1CC/C(COC(=O)OCCCN1CCCCC1)=C\CC[C@@]1(C)O[C@@H]21` [JVM 2-26], the CC50 in data set [13] is 5 µM. In [14], the inhibition at 10 µM is over 60%.
Regarding `C=C1C(=O)O[C@H]2[C@H]1CC/C(COC(=O)NCCCCCCO)=C\CC[C@@]1(C)O[C@@H]21` [JVM 2-31], the inhibition at 10 µM in [14] was over 60%.
The same measure, in the same setting: in the case of `C=C1C(=O)O[C@H]2[C@H]1CC/C(COC(=O)OCCN(C)C)=C\CC[C@@]1(C)O[C@@H]21` [JVM 2-35] it was over 60%; in that of `C=C1C(=O)O[C@H]2[C@H]1CC/C(COC(=O)OC)=C\CC[C@@]1(C)O[C@@H]21` [JVM 2-40], over 60%.
Turning to `C=C1C(=O)O[C@H]2[C@H]1CC/C(COC(=O)N1CCN(C)CC1)=C\CC[C@@]1(C)O[C@@H]21` [JVM 2-44], the CC50 was 48.7 µM in data set [1]; 42.3 µM in data set [15]; 52.6 µM in [2]; 64.8 µM in [3]; 55.1 µM in data set [4]; over 100 µM in data set [5]. Besides, the CC50 was over 100 µM in data set [6]; over 100 µM in data set [7]; 68.9 µM in data set [8]; 67 µM in data set [9]; 69.9 µM in data set [10]; 48 µM in data set [16]. In addition, the CC50 was 62 µM in data set [11] and 56.5 µM in data set [12].
In the case of `C=C1C(=O)O[C@H]2[C@H]1CC/C(COC(=O)NCCO)=C\CC[C@@]1(C)O[C@@H]21` [JVM 2-50], the CC50 in data set [1] was 49.1 µM; in data set [15] it was 47.3 µM; in data set [2], 71.1 µM; in [17], over 100 µM; in data set [3], 50.7 µM; in data set [4], 56.2 µM. For the same compound, the CC50 was over 100 µM in [5]; over 100 µM in [6]; over 100 µM in data set [7]; 75.5 µM in data set [9]; 88.3 µM in data set [10]; at least 100 µM in [11]. In addition, the CC50 in [12] worked out at 79.4 µM.
Consider `C=C1C(=O)O[C@H]2[C@H]1CC/C(COC(=O)NC)=C\CC[C@@]1(C)O[C@@H]21` [JVM 2-57], for which the CC50 is 49 µM in [1]; 34.3 µM in data set [15]; 43.3 µM in [2]; 90.3 µM in data set [17]; 42.9 µM in [4]; over 100 µM in [5]. The CC50 in data set [6] was over 100 µM; in [7], 59.5 µM; in data set [8], 55.9 µM; in [9], 56.2 µM; in data set [10], 66.7 µM; in data set [16], 33.6 µM. Also, the CC50 is 57 µM in data set [11] and 52 µM in data set [12].
As to `C=C1C(=O)O[C@H]2[C@H]1CC/C(COC(=O)N1CCC(F)(F)CC1)=C\CC[C@@]1(C)O[C@@H]21` [JVM 2-66], the CC50 in [1] is 11.5 µM; in data set [15], 9.62 µM; in data set [17], over 100 µM; in data set [3], 8.44 µM; in data set [4], 12.3 µM; in [5], 54.6 µM. In addition, the CC50 was over 100 µM in [6]; 58.3 µM in data set [7]; 54.5 µM in data set [8]; 30.7 µM in data set [9]; 41.7 µM in [10]; 7.75 µM in data set [16]. In addition, the figures for the CC50 in data set [11] and in data set [12] were 40.3 µM and 33 µM, respectively.
As for `C=C1C(=O)O[C@H]2[C@H]1CC/C(COC(=O)CCC(=O)N1CCC(C)CC1)=C\CC[C@@]1(C)O[C@@H]21` [JVM 2-70], the CC50 is 32.5 µM in [15]; 43.5 µM in [2]; over 100 µM in data set [17]; 31.9 µM in data set [3]; 65.1 µM in data set [5]; over 100 µM in [6]. Moreover, the CC50 in data set [7] was 74.9 µM; in data set [8], 56.6 µM; in data set [9], 52.8 µM; in data set [10] it was 49.3 µM; in data set [16] it was 11.9 µM; in data set [11], 44.5 µM. In [12], this compound registered a CC50 of 44.5 µM.
With `C=C1C(=O)O[C@H]2[C@H]1CC/C(COC(=O)NCCN1CCOCC1)=C\CC[C@@]1(C)O[C@@H]21` [JVM 57, ((1aR,7aS,10aS,10bS,E)-1a-methyl-8-methylene-9-oxo-1a,2,3,6,7,7a,8,9,10a,10b-decahydrooxireno[2′,3′:9,10]-cyclodeca[1,2-b]furan-5-yl)-methyl(2-morpholinoethyl)carbamate], the inhibition at 10 µM in data set [14] was over 60%.
Take `C=C1C(=O)O[C@H]2[C@H]1CC/C(COC(=O)NCCN1CCCC1)=C\CC[C@@]1(C)O[C@@H]21` [JVM 59, ((1aR,7aS,10aS,10bS,E)-1a-methyl-8-methylene-9-oxo-1a,2,3,6,7,7a,8,9,10a,10b-decahydrooxireno[2′,3′:9,10]cyclodeca[1,2-b]furan-5-yl)methyl-(2-(pyrrolidin-1-yl)ethyl)carbamate]: in [14], the inhibition at 10 µM is over 60%.
Regarding `C=C1C(=O)O[C@H]2[C@H]1CC/C(COC(=O)NCCc1ccccn1)=C\CC[C@@]1(C)O[C@@H]21` [JVM 61, ((1aR,7aS,10aS,10bS,E)-1a-methyl-8-methylene-9-oxo-1a,2,3,6,7,7a,8,9,10a,10b-decahydrooxireno[2′,3′:9,10]cyclodeca[1,2-b]furan-5-yl)methyl-(2-(pyridin-2-yl)ethyl)carbamate], the inhibition at 10 µM in data set [14] is over 60%.
`C=C1C(=O)O[C@H]2[C@H]1CC/C(COC(=O)Nc1n[nH]c(SC)n1)=C\CC[C@@]1(C)O[C@@H]21` [JVM 64, ((1aR,7aS,10aS,10bS,E)-1a-methyl-8-methylene-9-oxo-1a,2,3,6,7,7a,8,9,10a,10b-decahydrooxireno[2′,3′:9,10]cyclodeca[1,2-b]furan-5-yl)methyl-(5-(methylthio)-1H-1,2,4-triazol-3-yl)carbamate]: in data set [13], the CC50 worked out at 7.4 µM. The inhibition at 10 µM in data set [14] is over 60%. In addition, the concentration for 50% growth inhibition (GI50) in data set [14] (sub-panel breast cancer) lay in the range of 0.57 to 3.07 µM; in data set [14] (sub-panel colon cancer), 1.12 to 2.06 µM; in data set [14] (sub-panel melanoma) it was 0.46 to 2.84 µM; in data set [14] (sub-panel non-small cell lung cancer), 0.65 to 1.45 µM; in data set [14] (sub-panel renal cancer), 0.9 to 2.6 µM.
Turning to `C=C1C(=O)O[C@H]2[C@H]1CC/C(COC(=S)n1ccnc1)=C\CC[C@@]1(C)O[C@@H]21` [JVM 66], the CC50 in data set [13] came out at 2.6 µM. For the same compound, in data set [14], the inhibition at 10 µM is over 60%.
`C=C1C(=O)O[C@H]2[C@H]1CC/C(COC(=O)CCC(=O)NCc1ccc(Cl)nc1)=C\CC[C@@]1(C)O[C@@H]21` [JVM 96]: the inhibition at 10 µM in data set [14] is over 60%.

These data come from patent US9469650B2, “Melampomagnolide B derivatives” (BOARD OF TRUSTEES OF THE UNIVERSITY OF ARKANSAS, priority 2013, dated 2016).
